The nature of data set [1]: Oral pharmacokinetics in mice. The format is in vivo. The conditions noted are these: mouse, plasma, 10 mg/kg.
In another data set the target is PI3Kα (Homo sapiens, UniProt P42336). As to the kind of experiment: Assay 1: Fluorescent (HTRF) determination of PI3 kinase enzyme activity, PI3Kα. The format is biochemical. An excerpt:
Phosphoinositide 3 kinases (PI3K) belong to a class of lipid kinases that play a critical role in the regulation of several key cellular processes. The PI3K are capable of phosphorylating the 3-hydroxy position of phosphoinositols thereby generating second messengers involved in downstream signaling events. The homogenous time resolved fluorescence (HTRF) assay allows detection of 3,4,5-triphosphate (PIPS) formed as a result of phosphorylation of phosphotidylinositol 4,5-biphosphate (PIP2) by PI3K isoforms such as α, β, γ or δ.
PI3K isoform activity for α, β, γ or δ was determined using a PI3K human HTRF™ Assay Kit (Millipore, Billerica, Mass.) with modifications. All incubations were carried out at room temperature. 0.5 μl of 40× inhibitor (in 100% DMSO) or 100% DMSO were added to each well of a 384-well white plate (Greiner Bio-One, Monroe, N.C.) containing 14.5 μl 1× reaction buffer/PIP2 (10 mM MgCl2, 5 mM DTT, 1.38 μM PIP2) mix with or without enzyme, followed by 5 μl/well of 400 μM ATP and incubated for an additional 30 minutes. The reaction was terminated by adding 5 μl/well stop solution (Millipore, Billerica, Mass.). 5 μl of detection mix (Millipore, Billerica, Mass.) was then added to each well and incubated for 6-18 hours in the dark. HRTF ratio was measured on a microplate reader (BMG Labtech., Germany) at an excitation wavelength of 337 nm and emission wavelengths of 665 and 615 nm with an integration time of 400 msec counting delay of 50 msec.

In another data set the target is PI3Kγ (Homo sapiens, UniProt P48736). In words: Assay 4: fMLP induced CD63 expression in basophils from human whole blood. The following applies: n=1, read-out: IC50 for fMLP (PI3K γ), CD63 positive basophils. The class given is cell-based. Details: endogenous in cells; host or cells: basophils in human whole blood. Here is the method: PI3K δ and γ signaling in basophils manifested by an alteration of anti-FcεR1 or fMLP induced CD63 expression is a useful pharmacodynamic marker determined using the Flow2CAST® kit (Buhlmann Laboratories, Switzerland). The test procedure involves the following steps: • Mix the anti-coagulated blood sample by inverting the venipuncture tube several times; • Prepare fresh and pyrogen-free 3.5 ml polypropylene or polystyrene tubes suitable for Flow Cytometry measurements; • Add 49 μl of patient's whole blood to each tube; • Add 1 μl of 10% DMSO (background) or test compound (10% DMSO) to the assigned tubes and mix gently. Incubate at room temperature for 15 minutes; • Pipet 50 μl of the Stimulation buffer (background) or anti-FcεRI Ab or fMLP to each tube; • Add 100 μl of Stimulation Buffer to each tube; • Mix gently. Add 20 μl Staining Reagent (1:1 mix of FITC-CD63 and PE-CCR3) to each tube; • Mix gently, cover the tubes and incubate for 15 minutes at 37° C. in a water bath. […]
Percent CD63 positive cells within the gated basophil population were determined in different treatment groups and normalized to vehicle control.

In another data set the test system is TNFα. In words: Assay 6A: Cytokine assay in human PBMC, LPS induced TNFα. The class given is cell-based. The following applies: LPS 1 μg/ml, 6 hours, 2-3 independent experiments, read-out: EC50, antigen-induced TNFα. Here is the method:
The objective of this study was to assess the inhibitory potential of Compound A1 on antigen-induced cytokine release in human PBMC
• Heparinized human whole blood was diluted 1:1 with PBS, over laid on leukocyte separation medium and centrifuged at 400 g for 40 minutes. • Buffy layer was removed and washed with PBS • 0.15*10^6 of PBMCs were plated in 100 μl per well in RPMI media and incubated for 2 h. • 50 μl of 3× of the compound dilution in media was added and incubated for 15 min. • TNFα—induced with 50 μl of LPS in RPMI such that final concentration was 1 μg/ml. Supernatant was collected at 6 hours. • IL-2-induced with 50 μl of PHA in RPMI such that final concentration was 20 μg/ml. Supernatant was collected at 24 hours. • IL-4-induced with 50 μl of PHA in RPMI such that final concentration was 20 μg/ml.
EC50 values were calculated from 2-3 independent experiments.

The test system of data set [2] is T-lymphoma (MOLT-4, Jurkat, CCRF-CEM, Hut-78 and HuT-102) cells. As to the kind of experiment: Assay 2: In vitro cell proliferation assay in leukemic cell lines (MTT). The format is cell-based. Here is the method:
Growth inhibition assays were carried out using 10% FBS supplemented media. Cells were seeded at a concentration of 5000-20,000 cells/well in a 96-well plate. Test compounds at a concentration ranging from 0.01 to 10000 nM were added after 24 hours. Growth was assessed using the 3-[4,5-dimethylthiazol-2-yl]-2,5-diphenyltetrazolium bromide (MTT) dye reduction test at 0 hour (prior to the addition of the test compound) and 72 hours after the addition of test compound. Absorbance was read on a Fluostar Optima (BMG Labtech, Germany) at a wavelength of 450 nm. Data were analysed using GraphPad Prism and percent inhibition due to the test compound compared to the control was calculated accordingly.

Where only a bound is given, the exact number is not on record here.

A word on the AUC(0-t): it is the area under the concentration-time curve up to a stated or last time point. Read a high AUC(0-t) as high exposure. In general, Cmax refers to the peak of the concentration-time curve. What is called Tmax is the time from dosing to the highest level. In general, half-life refers to how long it takes for the measured level to halve. A lower half-life goes with rapid decline. As a reminder, the inhibition is the percentage by which the read-out fell short of the control. Lower therefore signals little suppression. Broadly, the IC50 is the midpoint of a concentration-inhibition curve. The term EC50 denotes the midpoint of the concentration-response curve. By GI50 is commonly meant the concentration giving 50% growth inhibition.

Chain of PI3Kα (P42336 whole entry, canonical isoform): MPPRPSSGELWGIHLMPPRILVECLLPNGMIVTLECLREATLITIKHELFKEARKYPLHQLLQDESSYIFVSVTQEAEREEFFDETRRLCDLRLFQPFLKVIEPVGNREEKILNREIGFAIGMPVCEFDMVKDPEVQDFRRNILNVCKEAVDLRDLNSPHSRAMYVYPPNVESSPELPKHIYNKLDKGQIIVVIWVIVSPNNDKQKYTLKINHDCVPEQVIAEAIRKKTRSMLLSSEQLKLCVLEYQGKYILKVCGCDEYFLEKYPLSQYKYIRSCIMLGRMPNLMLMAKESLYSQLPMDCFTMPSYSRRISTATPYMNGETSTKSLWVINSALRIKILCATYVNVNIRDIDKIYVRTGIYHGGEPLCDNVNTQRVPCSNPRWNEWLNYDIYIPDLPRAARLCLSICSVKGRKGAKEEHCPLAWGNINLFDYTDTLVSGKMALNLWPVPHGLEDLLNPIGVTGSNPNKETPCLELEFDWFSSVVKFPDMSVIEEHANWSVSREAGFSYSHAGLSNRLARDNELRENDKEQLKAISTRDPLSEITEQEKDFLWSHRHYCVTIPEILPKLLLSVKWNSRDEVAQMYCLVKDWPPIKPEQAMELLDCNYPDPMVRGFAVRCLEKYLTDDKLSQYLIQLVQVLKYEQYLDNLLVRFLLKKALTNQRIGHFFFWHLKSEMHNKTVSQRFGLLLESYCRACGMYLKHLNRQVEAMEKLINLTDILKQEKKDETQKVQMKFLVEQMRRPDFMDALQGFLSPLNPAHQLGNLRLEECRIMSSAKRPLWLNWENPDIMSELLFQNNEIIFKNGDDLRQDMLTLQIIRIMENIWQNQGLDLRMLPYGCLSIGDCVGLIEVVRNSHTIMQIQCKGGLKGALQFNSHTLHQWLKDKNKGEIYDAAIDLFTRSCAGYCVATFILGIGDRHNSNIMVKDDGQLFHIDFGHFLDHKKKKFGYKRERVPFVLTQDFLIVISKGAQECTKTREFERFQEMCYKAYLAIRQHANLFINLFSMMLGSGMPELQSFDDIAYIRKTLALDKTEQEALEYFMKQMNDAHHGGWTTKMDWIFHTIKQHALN
Chain of PI3Kα (P27986 whole entry partner, canonical isoform): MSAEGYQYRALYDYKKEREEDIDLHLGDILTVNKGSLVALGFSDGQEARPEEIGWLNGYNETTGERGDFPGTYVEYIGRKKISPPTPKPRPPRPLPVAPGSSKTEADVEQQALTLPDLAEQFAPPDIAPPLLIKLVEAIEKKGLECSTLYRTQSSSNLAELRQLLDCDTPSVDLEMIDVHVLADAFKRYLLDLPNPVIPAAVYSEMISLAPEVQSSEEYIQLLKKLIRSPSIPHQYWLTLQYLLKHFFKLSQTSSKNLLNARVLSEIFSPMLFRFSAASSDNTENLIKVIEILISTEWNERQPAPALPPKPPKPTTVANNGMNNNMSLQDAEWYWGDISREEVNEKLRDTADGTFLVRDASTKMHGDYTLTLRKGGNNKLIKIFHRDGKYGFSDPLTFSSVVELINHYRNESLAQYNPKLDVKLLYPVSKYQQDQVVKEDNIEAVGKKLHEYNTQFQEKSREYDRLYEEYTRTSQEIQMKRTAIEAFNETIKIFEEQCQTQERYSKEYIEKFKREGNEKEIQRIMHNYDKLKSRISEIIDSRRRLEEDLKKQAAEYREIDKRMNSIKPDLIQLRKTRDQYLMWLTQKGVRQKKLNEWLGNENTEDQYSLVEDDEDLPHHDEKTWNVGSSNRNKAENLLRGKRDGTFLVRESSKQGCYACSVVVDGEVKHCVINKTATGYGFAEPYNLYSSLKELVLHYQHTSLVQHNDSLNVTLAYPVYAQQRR
Chain of PI3Kγ (P48736 whole entry): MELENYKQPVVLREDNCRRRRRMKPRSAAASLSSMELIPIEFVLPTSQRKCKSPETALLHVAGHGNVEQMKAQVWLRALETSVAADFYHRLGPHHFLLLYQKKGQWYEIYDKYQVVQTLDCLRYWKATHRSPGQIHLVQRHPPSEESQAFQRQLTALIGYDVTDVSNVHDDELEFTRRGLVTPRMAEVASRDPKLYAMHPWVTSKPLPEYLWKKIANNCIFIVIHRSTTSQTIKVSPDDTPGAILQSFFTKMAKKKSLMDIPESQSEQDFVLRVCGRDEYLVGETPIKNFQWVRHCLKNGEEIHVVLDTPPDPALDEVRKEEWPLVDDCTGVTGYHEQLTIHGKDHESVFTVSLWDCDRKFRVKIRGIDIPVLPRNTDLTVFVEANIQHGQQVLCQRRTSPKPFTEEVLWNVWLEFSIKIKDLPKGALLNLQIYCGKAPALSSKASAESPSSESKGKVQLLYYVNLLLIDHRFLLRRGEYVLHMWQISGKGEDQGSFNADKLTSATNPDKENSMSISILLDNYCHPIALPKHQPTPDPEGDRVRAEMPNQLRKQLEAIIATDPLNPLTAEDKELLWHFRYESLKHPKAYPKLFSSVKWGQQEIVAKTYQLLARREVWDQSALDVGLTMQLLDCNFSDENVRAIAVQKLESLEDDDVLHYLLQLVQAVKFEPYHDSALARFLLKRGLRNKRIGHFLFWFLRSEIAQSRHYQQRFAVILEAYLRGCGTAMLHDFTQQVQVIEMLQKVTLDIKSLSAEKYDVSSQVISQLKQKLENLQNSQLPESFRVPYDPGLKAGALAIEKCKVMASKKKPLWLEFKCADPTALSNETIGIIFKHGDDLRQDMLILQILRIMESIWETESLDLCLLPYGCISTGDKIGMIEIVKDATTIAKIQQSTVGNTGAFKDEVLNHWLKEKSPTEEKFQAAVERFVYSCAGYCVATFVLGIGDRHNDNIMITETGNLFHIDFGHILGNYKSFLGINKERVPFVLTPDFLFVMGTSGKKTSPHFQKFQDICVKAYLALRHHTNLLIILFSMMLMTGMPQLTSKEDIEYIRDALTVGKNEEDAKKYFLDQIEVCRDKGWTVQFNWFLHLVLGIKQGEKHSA

With `COc1ccc(-c2nn([C@@H](C)c3oc4cccc(F)c4c(=O)c3-c3cccc(F)c3)c3ncnc(N)c23)cc1NS(C)(=O)=O` [Compound A1, (S)—N-(5-(4-amino-1-(1-(5-fluoro-3-(3-fluorophenyl)-4-oxo-4H-chromen-2-yl)ethyl)-1H-pyrazolo[3,4-d]pyrimidin-3-yl)-2-methoxyphenyl)methanesulfonamide], in data set [1], the AUC(0-t) was found to be 7.49 µM·h, the highest level (Cmax) was 3.78 µM, the time of peak concentration (Tmax) was 30 min and the half-life is 87 min. For the same compound, on PI3Kα, 10 µM produced 23% inhibition. On PI3Kα (HTRF enzyme assay), the IC50 is over 10000 nM. Moreover, the “Fold-Selectivity PI3Kα” value on PI3Kα (selectivity profile, enzyme IC50) was over 329 fold. The IC50 at PI3Kγ is under 70 nM. In the data set on TNFα, the EC50 worked out at 7.1 nM. Moreover, in data set [2] (MOLT-4, Jurkat, CCRF-CEM, Hut-78 and HuT-102, MTT, 72 hours, range over the cell lines, read-out: GI50, reduction in T-lymphoma cell viability), the GI50 is 2500 to 12800 nM. The “cytotoxicity over the 72 hour incubation period” value in data set [2] (T-lymphoma cell lines, 72 hour incubation) was “did not display any apparent cytotoxicity”.

For the origin of these results see US20190202836A1, “SELECTIVE DUAL INHIBITORS OF PI3 DELTA AND GAMMA PROTEIN KINASES” (Rhizen Pharmaceuticals SA, priority 2014, published 2019).
